From ChEMBL document CHEMBL1133989, “Which aminoglycoside ring is most important for binding? A hydropathic analysis of gentamicin, paromomycin, and analogues” (Bioorg Med Chem Lett, 2001)

The compounds below were run on Ribosomal RNA A-site (assay: Binding affinity of aminoglycoside to 16S ribosomal RNA A-site in Escherichia coli).
Assay type: nucleic-acid assay

Compared with `NC[C@@H]1O[C@H](O[C@H]2[C@@H](O)[C@H](O[C@@H]3[C@@H](O)[C@H](N)C[C@H](N)[C@H]3O[C@H]3O[C@H](CO)[C@@H](O)[C@H](O)[C@H]3N)O[C@@H]2CO)[C@H](N)[C@@H](O)[C@@H]1O` [PAROMOMYCIN], `NC[C@@H]1O[C@H](O[C@H]2[C@@H](O)[C@H](O[C@@H]3[C@@H](O)[C@H](N)C[C@H](N)[C@H]3O[C@H]3O[C@H](CN)[C@@H](O)[C@H](O)[C@H]3N)O[C@@H]2CO)[C@H](N)[C@@H](O)[C@@H]1O` [FRAMYCETIN] is 11-fold lower in Kd: 200 nM for the first, 19 nM for the second.

Going from `NCCCNCC[C@H]1[C@@H](O)[C@H](O[C@H]2[C@@H](O)[C@H](N)C[C@H](N)[C@H]2O[C@H]2O[C@H](CN)[C@H](O)[C@H](O)[C@H]2N)O[C@@H]1CO` to `NCCC1C(CO)OC(OC2C(O)C(N)CC(N)C2OC2OC(CN)C(O)C(O)C2N)C1O` (stereo not drawn), the Kd rises from 260 nM to 1700 nM (6.5-fold).

Compared with `NCC1OC(OC2C(N)CC(N)C(O)C2OC2OC(CO)C(OC3OC(CN)C(O)C(O)C3O)C2O)C(N)C(O)C1O` (stereo not drawn), `NC[C@H]1O[C@H](O[C@H]2[C@@H](O[C@@H]3O[C@H](CO)[C@@H](O[C@@H]4O[C@H](CO)[C@H](O)[C@H](O)[C@H]4O)[C@H]3O)[C@@H](O)[C@H](N)C[C@@H]2N)[C@H](N)[C@H](O)[C@@H]1O` is 40-fold higher in Kd: 700 nM for the first, 28000 nM for the second. The first binds more tightly here.

`NCCC(O)C(=O)N[C@@H]1C[C@H](N)[C@@H](O[C@H]2O[C@H](CN)[C@@H](O)[C@H](O)[C@H]2N)[C@@H](O[C@@H]2O[C@H](CO)[C@@H](O)[C@H]2O)[C@H]1O` (stereo partly drawn) [BUTIROSIN B] and `NC[C@H]1O[C@H](O[C@H]2[C@H](O[C@@H]3O[C@H](CO)[C@@H](O)[C@H]3O)[C@@H](O)[C@H](N)C[C@@H]2N)[C@H](N)[C@@H](O)[C@@H]1O` [RIBOSTAMYCIN] are within 1.5-fold of each other in Kd: 27000 nM for the first, 25000 nM for the second.

`N[C@H]1[C@@H](O[C@H]2[C@H](O)[C@@H](O)[C@H](N)C[C@@H]2N)O[C@H](CO)[C@@H](O)[C@@H]1O` [PAROMAMINE] and `NC[C@H]1O[C@H](O[C@H]2[C@H](O)[C@@H](O)[C@H](N)C[C@@H]2N)[C@H](N)[C@@H](O)[C@@H]1O` [NEAMINE] cannot be ordered by Kd: under 100000 nM for the first, 7800 nM for the second.

`NC[C@H]1O[C@H](O[C@H]2[C@H](O)[C@@H](O[C@H]3O[C@H](CO)[C@@H](O)[C@H](N)[C@H]3O)[C@H](N)C[C@@H]2N)[C@H](N)C[C@@H]1O` [TOBRAMYCIN] and `NC[C@H]1O[C@H](O[C@H]2[C@H](O)[C@@H](O[C@H]3O[C@H](CO)[C@@H](O)[C@H](N)[C@H]3O)[C@H](N)C[C@@H]2N)[C@H](N)[C@@H](O)[C@@H]1O` [BEKANAMYCIN] are within 1.5-fold of each other in Kd: 1500 nM for the first, 1400 nM for the second.

`NC[C@@H]1O[C@@H](O[C@H]2[C@H](O)[C@@H](O[C@H]3O[C@H](CO)[C@@H](O)[C@H](N)[C@H]3O)[C@H](N)C[C@@H]2N)[C@@H](O)[C@H](O)[C@H]1O` [KANAMYCIN A] showed a Kd of 18000 nM.
